Source: PubChem BioAssay AID248 (DTP/NCI, 2004)
“And” between values parts separate entries of the source, which are not always exact repeats. Equal values may be shown once. Inconclusive results and toxic doses are left out.

System: L1210 leukemia ip in BDF1 mice, survival T/C
Experiment: NCI In Vivo Anticancer Drug Screen. Data for tumor model L1210 Leukemia (intraperitoneal) in B6D2F1 (BDF1) mice
Settings: endpoint: mean survival time, higher = longer survival
Outline: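 Tumor was transplanted into mice, which were then dosed with test compound or vehicle alone. Survival was recorded for each group, and the treated figure was expressed relative to the control figure.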

[1] = dose: 100.0 mg/kg/injection, schedule: Q01DX001 (ip), vehicle: Klucel (hydroxypropylcellulose) (HPC)
[2] = dose: 100.0 mg/kg/injection, schedule: Q01DX009 (ip), vehicle: Klucel (hydroxypropylcellulose) (HPC)
[3] = dose: 100.0 mg/kg/injection, schedule: Q04DX002 (ip), vehicle: Klucel (hydroxypropylcellulose) (HPC)
[4] = dose: 100.0 mg/kg/injection, schedule: Q04DX003 (ip), vehicle: Klucel (hydroxypropylcellulose) (HPC)
[5] = dose: 200.0 mg/kg/injection, schedule: Q01DX001 (ip), vehicle: Klucel (hydroxypropylcellulose) (HPC)
[6] = dose: 200.0 mg/kg/injection, schedule: Q01DX009 (ip), vehicle: Klucel (hydroxypropylcellulose) (HPC)
[7] = dose: 200.0 mg/kg/injection, schedule: Q04DX002 (ip), vehicle: Klucel (hydroxypropylcellulose) (HPC)
[8] = dose: 200.0 mg/kg/injection, schedule: Q04DX003 (ip), vehicle: Klucel (hydroxypropylcellulose) (HPC)
[9] = dose: 400.0 mg/kg/injection, schedule: Q01DX001 (ip), vehicle: Klucel (hydroxypropylcellulose) (HPC)
[10] = dose: 400.0 mg/kg/injection, schedule: Q01DX009 (ip), vehicle: Klucel (hydroxypropylcellulose) (HPC)
[11] = dose: 400.0 mg/kg/injection, schedule: Q04DX002 (ip), vehicle: Klucel (hydroxypropylcellulose) (HPC)
[12] = dose: 400.0 mg/kg/injection, schedule: Q04DX003 (ip), vehicle: Klucel (hydroxypropylcellulose) (HPC)
[13] = dose: 100.0 mg/kg/injection, schedule: Q04DX002 (ip), vehicle: saline with Tween-80
[14] = dose: 25.0 mg/kg/injection, schedule: Q01DX009 (ip), vehicle: Klucel (hydroxypropylcellulose) (HPC)
[15] = dose: 25.0 mg/kg/injection, schedule: Q04DX003 (ip), vehicle: Klucel (hydroxypropylcellulose) (HPC)
[16] = dose: 50.0 mg/kg/injection, schedule: Q01DX009 (ip), vehicle: Klucel (hydroxypropylcellulose) (HPC)
[17] = dose: 50.0 mg/kg/injection, schedule: Q04DX003 (ip), vehicle: Klucel (hydroxypropylcellulose) (HPC)
[18] = dose: 100.0 mg/kg/injection, schedule: Q04DX003 (ip), vehicle: saline with Tween-80
[19] = dose: 200.0 mg/kg/injection, schedule: Q04DX003 (ip), vehicle: saline with Tween-80
[20] = dose: 100.0 mg/kg/injection, schedule: Q01DX001 (ip), vehicle: carboxymethylcellulose (CMC)
[21] = dose: 200.0 mg/kg/injection, schedule: Q01DX001 (ip), vehicle: carboxymethylcellulose (CMC)
[22] = dose: 400.0 mg/kg/injection, schedule: Q01DX001 (ip), vehicle: carboxymethylcellulose (CMC)

O=C(Nc1ccccc1C(F)(F)F)OCCN1CCNC1=S
T/C [1]: 106 % of control
T/C [2]: 96 % of control and 103 % of control
T/C [3]: 94 % of control and 96 % of control
T/C [4]: 101 % of control
T/C [5]: 103 % of control
T/C [6]: 98 % of control and 100 % of control
T/C [7]: 95 % of control and 111 % of control
T/C [8]: 106 % of control
T/C [9]: 104 % of control
T/C [10]: 95 % of control and 100 % of control
T/C [11]: 94 % of control and 104 % of control
T/C [12]: 89 % of control

C=C1CC2(OC1=O)C(=O)N(C)c1ccc(I)cc12 (stereo unspecified)
T/C (dose: 25.0 mg/kg/injection, schedule: Q04DX002 (ip), vehicle: saline with Tween-80): 101 % of control
T/C (dose: 50.0 mg/kg/injection, schedule: Q04DX002 (ip), vehicle: saline with Tween-80): 97 % of control
T/C [13]: 102 % of control

O=C1C(c2ccccc2)=C2c3ccccc3-c3ccccc3C2(O)C1c1ccccc1 (stereo unspecified)
T/C [1]: 98 % of control
T/C [5]: 103 % of control
T/C [9]: 98 % of control

N#CC(c1ccccc1)C(C/C(=N\O)c1ccccc1)c1ccccc1 (stereo unspecified)
T/C [3]: 111 % of control
T/C [7]: 100 % of control
T/C [11]: 96 % of control

COc1ccc(CCN2CC(=O)NC(=O)C2)cc1OC
T/C [14]: 95 % of control
T/C [15]: 104 % of control
T/C [16]: 96 % of control
T/C [17]: 104 % of control
T/C [2]: 101 % of control
T/C [4]: 101 % of control
T/C [6]: 101 % of control
T/C [8]: 101 % of control
T/C [10]: 101 % of control
T/C [12]: 109 % of control

O=C1CCSC(=O)N1SC(Cl)(Cl)Cl
T/C (dose: 6.0 mg/kg/injection, schedule: Q04DX003 (ip), vehicle: saline with Tween-80): 88 % of control
T/C (dose: 12.0 mg/kg/injection, schedule: Q01DX009 (ip), vehicle: saline with Tween-80): 94 % of control
T/C (dose: 12.0 mg/kg/injection, schedule: Q04DX003 (ip), vehicle: saline with Tween-80): 101 % of control
T/C (dose: 25.0 mg/kg/injection, schedule: Q01DX009 (ip), vehicle: saline with Tween-80): 92 % of control
T/C (dose: 25.0 mg/kg/injection, schedule: Q04DX003 (ip), vehicle: saline with Tween-80): 97 % of control and 101 % of control
T/C (dose: 50.0 mg/kg/injection, schedule: Q01DX009 (ip), vehicle: saline with Tween-80): 93 % of control and 90 % of control
T/C (dose: 100.0 mg/kg/injection, schedule: Q04DX003 (ip), vehicle: saline): 98 % of control
T/C (dose: 200.0 mg/kg/injection, schedule: Q04DX003 (ip), vehicle: saline): 93 % of control

N#CCC[P+](CCC#N)(CCC#N)CCCCCC[P+](CCC#N)(CCC#N)CCC#N
T/C [18]: 98 % of control
T/C [19]: 93 % of control

O=C1c2cc(Br)ccc2NC1(c1c[nH]c2ccccc12)c1c[nH]c2ccccc12
T/C (dose: 50.0 mg/kg/injection, schedule: Q01DX001 (ip), vehicle: saline): 102 % of control
T/C (dose: 100.0 mg/kg/injection, schedule: Q01DX001 (ip), vehicle: saline): 100 % of control
T/C (dose: 200.0 mg/kg/injection, schedule: Q01DX001 (ip), vehicle: saline): 96 % of control
T/C (dose: 400.0 mg/kg/injection, schedule: Q01DX001 (ip), vehicle: saline): 93 % of control

Cc1cn(CCCCOC(=O)c2ccc([N+](=O)[O-])cc2)c(=O)[nH]c1=O
T/C [1]: 95 % of control
T/C [5]: 100 % of control
T/C [9]: 87 % of control

O=[N+]([O-])C1(Br)c2ccccc2-c2nc3ccccc3cc21 (stereo unspecified)
T/C [1]: 94 % of control
T/C [5]: 97 % of control
T/C [9]: 94 % of control

C/C=C(/C)c1ccccc1
T/C [20]: 95 % of control
T/C [21]: 95 % of control
T/C [22]: 95 % of control

O=C1c2ccccc2C(=O)N1NS(=O)c1ccccc1 (stereo unspecified)
T/C [13]: 93 % of control
T/C (dose: 200.0 mg/kg/injection, schedule: Q04DX002 (ip), vehicle: saline with Tween-80): 104 % of control
T/C (dose: 400.0 mg/kg/injection, schedule: Q04DX002 (ip), vehicle: saline with Tween-80): 101 % of control

NC(=S)N/N=C/c1cccc2ccccc12
T/C (dose: 100.0 mg/kg/injection, schedule: Q04DX002 (ip), vehicle: gum acacia): 91 % of control
T/C (dose: 200.0 mg/kg/injection, schedule: Q04DX002 (ip), vehicle: gum acacia): 98 % of control
T/C (dose: 400.0 mg/kg/injection, schedule: Q04DX002 (ip), vehicle: gum acacia): 117 % of control

O=C(Cn1ccc(=O)[nH]c1=O)c1ccc(Cl)s1
T/C (dose: 100.0 mg/kg/injection, schedule: Q01DX009 (ip), vehicle: saline with Tween-80): 100 % of control
T/C [18]: 96 % of control
T/C (dose: 200.0 mg/kg/injection, schedule: Q01DX009 (ip), vehicle: saline with Tween-80): 97 % of control
T/C [19]: 98 % of control
T/C (dose: 400.0 mg/kg/injection, schedule: Q01DX009 (ip), vehicle: saline with Tween-80): 91 % of control
T/C (dose: 400.0 mg/kg/injection, schedule: Q04DX003 (ip), vehicle: saline with Tween-80): 104 % of control

C(=N/N=C/c1ccccn1)/c1cccnc1
T/C [20]: 94 % of control
T/C [21]: 96 % of control
T/C [22]: 96 % of control

C[N+](C)(C)C1(Cc2ccc(Cl)cc2)c2ccccc2-c2ccccc21
T/C (dose: 12.5 mg/kg/injection, schedule: Q01DX009 (ip), vehicle: Klucel (hydroxypropylcellulose) (HPC)): 97 % of control
T/C (dose: 12.5 mg/kg/injection, schedule: Q04DX003 (ip), vehicle: Klucel (hydroxypropylcellulose) (HPC)): 95 % of control
T/C [14]: 92 % of control
T/C [15]: 95 % of control
T/C [16]: 98 % of control
T/C [17]: 92 % of control

CC1CN=C(c2ccc(NC(=O)NCCCCCCCCCCCCNC(=O)Nc3ccc(C4=NCC(C)N4)cc3)cc2)N1 (stereo unspecified)
T/C (dose: 12.5 mg/kg/injection, schedule: Q01DX Z (ip), vehicle: carboxymethylcellulose (CMC)): 95 % of control
T/C (dose: 125.0 mg/kg/injection, schedule: Q01DX Z (ip), vehicle: carboxymethylcellulose (CMC)): 104 % of control

CCN(O)C(N)=O
T/C (dose: 34.5 mg/kg/injection, schedule: Q01DX009 (ip), vehicle: saline): 107 % of control
T/C (dose: 52.0 mg/kg/injection, schedule: Q01DX009 (ip), vehicle: saline): 111 % of control
T/C (dose: 62.0 mg/kg/injection, schedule: Q03HX024 (ip), vehicle: saline): 101 % of control
T/C (dose: 78.0 mg/kg/injection, schedule: Q01DX009 (ip), vehicle: saline): 113 % of control
T/C (dose: 117.0 mg/kg/injection, schedule: Q01DX009 (ip), vehicle: saline): 110 % of control and 122 % of control (2×)
T/C (dose: 125.0 mg/kg/injection, schedule: Q03HX024 (ip), vehicle: saline): 98 % of control
T/C (dose: 178.0 mg/kg/injection, schedule: Q01DX009 (ip), vehicle: saline): 112 % of control
T/C (dose: 600.0 mg/kg/injection, schedule: Q01DX009 (ip), vehicle: saline): 166 % of control and 167 % of control

Nc1cc2c(cc1N)-c1ccccc1/C2=N\O
T/C (dose: 75.0 mg/kg/injection, schedule: Q01DX001 (ip), vehicle: carboxymethylcellulose (CMC)): 102 % of control
T/C (dose: 150.0 mg/kg/injection, schedule: Q01DX001 (ip), vehicle: carboxymethylcellulose (CMC)): 91 % of control

O=C(Sc1ccc2ccccc2c1CN1CCCCC1)c1ccc([N+](=O)[O-])cc1
T/C (dose: 200.0 mg/kg/injection, schedule: Q01DX Z (ip), vehicle: methylcellulose (MC)): 96 % of control
T/C (dose: 225.0 mg/kg/injection, schedule: Q01DX Z (ip), vehicle: methylcellulose (MC)): 94 % of control
T/C (dose: 450.0 mg/kg/injection, schedule: Q01DX Z (ip), vehicle: methylcellulose (MC)): 89 % of control
T/C (dose: 675.0 mg/kg/injection, schedule: Q01DX Z (ip), vehicle: methylcellulose (MC)): 96 % of control
